#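 Five concentrations, 48 hours, 96-well plates. GI50: concentration for 50% inhibition of growth.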 Active and inactive are the calls of the source. Cut-off read from the data, not from the text of the source: active = GI50 up to about 1.1 µM and inactive = higher.
# Columns and labels:
# Experiment in all cases: inhibition of tumour cell growth, NCI panel, 48 h
# [1] = system: SF-295
# [2] = system: SNB-19
# [3] = system: Malme-3M
# [4] = system: A549
# [5] = system: HOP-92
# [6] = system: ACHN
# [7] = system: 786-0
# [8] = system: KM12
# [9] = system: SK-MEL-28
# [10] = system: SF-539
# [11] = system: SNB-75
# [12] = system: HT-29
# [13] = system: HOP-62
# [14] = system: HCT-116
# [15] = system: NCI-H460
# [16] = system: RPMI-8226
Compound,GI50 [1],GI50 [2],GI50 [3],GI50 [4],GI50 [5],GI50 [6],GI50 [7],GI50 [8],GI50 [9],GI50 [10],GI50 [11],GI50 [12],GI50 [13],GI50 [14],GI50 [15],GI50 [16]
O=C1C=CC(=O)c2nc3c(cc21)CCC3,> 100 µM (inactive),> 100 µM (inactive),17.5 µM (inactive),87.3 µM (inactive),19.5 µM (inactive),18.8 µM (inactive),18 µM (inactive),> 100 µM (inactive),25.6 µM (inactive),> 10 µM (inactive),67.5 µM (inactive),45.9 µM (inactive),> 100 µM (inactive),15.5 µM (inactive),32.7 µM (inactive),–
CCC1=CC2CN3Cn4c(c(COCc5c6n(c7ccccc57)CN5CC7C=C(CC)C5C6(C(=O)OC)C7)c5ccccc54)C(C(=O)OC)(C2)C13,> 100 µM (inactive),> 100 µM (inactive),> 100 µM (inactive),> 100 µM (inactive),–,68.4 µM (inactive),> 100 µM (inactive),> 100 µM (inactive),> 100 µM (inactive),–,–,> 100 µM (inactive),> 100 µM (inactive),> 100 µM (inactive),> 100 µM (inactive),> 100 µM (inactive)
Cc1c(C(=O)Nc2ccc(Cl)c(C(F)(F)F)c2)oc2cc(O)ccc2/c1=N\NC(N)=S,> 100 µM (inactive),> 100 µM (inactive),> 100 µM (inactive),> 100 µM (inactive),–,> 100 µM (inactive),> 100 µM (inactive),> 100 µM (inactive),> 100 µM (inactive),> 100 µM (inactive),> 100 µM (inactive),> 100 µM (inactive),> 100 µM (inactive),> 100 µM (inactive),> 100 µM (inactive),> 100 µM (inactive)
Cc1nc(-c2nc(C)c(C(=O)/C=C/c3ccc(N(C)C)cc3)s2)sc1C(=O)/C=C/c1ccc(N(C)C)cc1,31.9 µM (inactive),64.1 µM (inactive),66.4 µM (inactive),44.2 µM (inactive),–,> 100 µM (inactive),54 µM (inactive),40.9 µM (inactive),67.3 µM (inactive),41.7 µM (inactive),–,> 10 µM (inactive),> 100 µM (inactive),29.3 µM (inactive),> 100 µM (inactive),–
CN(C)c1ccc(C(C=C2c3ccccc3Sc3ccccc32)=C(C#N)C#N)cc1,87.7 µM (inactive),83.4 µM (inactive),> 100 µM (inactive),> 100 µM (inactive),–,37.5 µM (inactive),92.3 µM (inactive),> 100 µM (inactive),> 100 µM (inactive),77.3 µM (inactive),17.1 µM (inactive),> 100 µM (inactive),93.8 µM (inactive),> 100 µM (inactive),68.9 µM (inactive),> 100 µM (inactive)
Cc1ccc([S+](c2ccccc2)c2cc(C)ccc2C)cc1 (stereo not drawn),12.4 µM (inactive),4.38 µM (inactive),0.271 µM (active),7.03 µM (inactive),–,11.2 µM (inactive),35.2 µM (inactive),2.85 µM (inactive),–,13.7 µM (inactive),< 0.01 µM (active),–,15.1 µM (inactive),2.94 µM (inactive),6.38 µM (inactive),3.66 µM (inactive)
COc1ccc2c(c1)CC1NC2Cc2ccccc21 (stereo not drawn),> 100 µM (inactive),–,> 100 µM (inactive),> 100 µM (inactive),–,> 100 µM (inactive),> 100 µM (inactive),> 100 µM (inactive),> 100 µM (inactive),> 100 µM (inactive),> 100 µM (inactive),> 100 µM (inactive),> 100 µM (inactive),> 100 µM (inactive),> 100 µM (inactive),> 100 µM (inactive)

# From ChEMBL document CHEMBL1201862, “PubChem BioAssay data set” (2004)
